Data published in US20040002441A1, “Recombination modulators and methods for producing and using the same” (priority 2000, published 2004).
Where no end group is shown, it is not given here.

Tests used:
Format in all cases: biochemical
[1] = target: T1, bacteriophage λ Integrase (Int) (Escherichia phage lambda, UniProt P03700); assay: Formation of covalent protein-DNA complexes (CPDs) by Int
T1 sequence (P03700 1-356): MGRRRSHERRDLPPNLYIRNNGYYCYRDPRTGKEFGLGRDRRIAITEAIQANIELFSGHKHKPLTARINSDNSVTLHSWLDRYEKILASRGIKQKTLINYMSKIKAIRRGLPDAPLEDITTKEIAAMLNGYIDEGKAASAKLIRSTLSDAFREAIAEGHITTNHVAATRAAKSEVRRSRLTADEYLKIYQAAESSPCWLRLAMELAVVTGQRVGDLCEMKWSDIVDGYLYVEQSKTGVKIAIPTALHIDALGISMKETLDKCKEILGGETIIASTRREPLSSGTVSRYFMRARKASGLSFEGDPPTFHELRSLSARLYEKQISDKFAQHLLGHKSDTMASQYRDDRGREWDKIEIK
Source text: Int, like its relative tyrosine recombinases, makes transient covalent protein-DNA complexes (CPDs) during the cleavage stage of the recombination reaction. […] Since these complexes are the product of DNA cleavage by Int prior to strand exchange or ligation, we tested the effect of peptide KWWCRW on their formation. The peptide inhibited accumulation of both attL and attR CPDs by 65-75% (data not shown), supporting our model that KWWCRW blocks recombination by interfering with the cleavage step of the reaction.

[2] = target: Nde I; assay: Restriction enzyme assay on pUC19; details: Nde I (CATATG)
Experimental: (§1) Restriction enzyme assays. Restriction digests were performed as specified and the products were separated on 0.8% agarose gels electrophoresed at 80-90V in 1× Tris borate EDTA buffer. Gels were photographed, scanned and quantitated using NIH Image v.1.55, as recommended in the instruction manual.

[3] = target: T2, Pst I (Providencia stuartii, UniProt P00640); assay: Restriction enzyme assay on pUC19
T2 construct: purchased New England BioLabs
T2 sequence (P00640 1-326): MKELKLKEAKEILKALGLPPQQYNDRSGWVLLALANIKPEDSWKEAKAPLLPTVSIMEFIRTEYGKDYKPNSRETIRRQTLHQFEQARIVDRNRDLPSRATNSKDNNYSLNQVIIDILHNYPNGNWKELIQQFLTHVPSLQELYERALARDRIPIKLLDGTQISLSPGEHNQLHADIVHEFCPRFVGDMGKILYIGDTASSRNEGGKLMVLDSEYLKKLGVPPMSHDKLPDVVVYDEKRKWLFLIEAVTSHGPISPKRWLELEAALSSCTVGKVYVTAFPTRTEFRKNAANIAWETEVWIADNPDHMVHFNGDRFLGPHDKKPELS
Experimental: as §1

[4] = target: T3, Hind III (Haemophilus influenzae, UniProt P43870); assay: Restriction enzyme assay on pUC19
T3 construct: purchased New England BioLabs
Experimental: as §1

[5] = target: Xba I; assay: Restriction enzyme assay on pUC19; details: Xba I (TCTAGA)
Experimental: as §1

[6] = target: bacteriophage λ Integrase (Int) (Escherichia phage lambda, UniProt P03700); assay: Resolution of isolated excision Holliday junctions by Int, IHF and Xis; details: peptide 100 μM
Experimental: FIG. 18 depicts effect of peptide WKHYNY on DNA cleavage. A. Time course of resolution of excision HJs. HJs were isolated, and Int, IHF, and Xis were added in the presence or absence of peptide 52 (100 μM) and stopped at various timepoints (1, 5, 15, 30, 60, and 90 min). Absence of peptide, closed circles; presence of peptide, open squares. B. The extent of strand cleavage of attL. An attL site containing a phosphorothiolate modification at the point of top strand cleavage (attLS) was incubated with Int, IHF, and Xis, in the presence of attR and in the presence or absence of peptide WKHYNY. Absence of peptide, open squares; presence of peptides, closed diamonds.
Holliday junctions can be resolved either in the “forward” direction to form recombinant products or in the “reverse” direction to re-form substrates. Synthetic HJs representing intermediates in the unidirectional reactions are preferentially resolved in the direction of products (Hsu and Landy, 1984; Franz and Landy, 1990, 1995). We wanted to determine whether HJs isolated in the presence of peptide behave similarly to the synthetic HJs. In addition, we wanted to analyze the processing of bent-L HJs. Recombination reactions were assembled in the presence of peptide WKHYNY, and protein-free HJs were isolated from SDS-containing gels, eluted, and precipitated. […]
Target sequence in this assay (P0A6X7 whole entry partner, one chain of several): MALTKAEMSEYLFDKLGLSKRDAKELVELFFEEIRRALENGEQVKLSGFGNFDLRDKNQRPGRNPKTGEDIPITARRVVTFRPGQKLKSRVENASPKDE
Target sequence in this assay (P0A6Y1 whole entry partner, one chain of several): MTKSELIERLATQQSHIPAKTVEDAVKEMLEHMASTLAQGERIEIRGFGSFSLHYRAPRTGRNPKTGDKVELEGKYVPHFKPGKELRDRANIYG
Target sequence in this assay (P03699 whole entry partner, one chain of several): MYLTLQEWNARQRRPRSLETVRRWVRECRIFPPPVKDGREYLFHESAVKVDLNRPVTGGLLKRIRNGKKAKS

T3 sequence (P43870 whole entry): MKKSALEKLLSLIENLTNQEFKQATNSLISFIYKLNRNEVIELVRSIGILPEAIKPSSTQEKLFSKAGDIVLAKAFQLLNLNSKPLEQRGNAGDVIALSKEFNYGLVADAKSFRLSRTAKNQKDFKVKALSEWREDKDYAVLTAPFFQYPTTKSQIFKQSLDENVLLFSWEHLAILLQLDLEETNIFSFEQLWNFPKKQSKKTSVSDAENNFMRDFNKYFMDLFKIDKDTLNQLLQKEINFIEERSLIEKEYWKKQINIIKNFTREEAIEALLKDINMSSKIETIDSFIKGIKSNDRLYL

| Substance | inhibition of accumulation of attL and attR CPDs [1] | IC50 [2] | IC50 [3] | IC50 [4] | IC50 [5] | effect on rate of resolution of gel-isolated excision HJs [6] |
| --- | --- | --- | --- | --- | --- | --- |
| KWWCRW-NH2 [Peptide 59, KWWCRW] | 65-75% | 37 µM | 44 µM | 48 µM | 37 µM | – |
| WKHYNY-NH2 [Peptide 52, WKHYNY] | – | – | – | – | – | slowed the rate of cleavage |
